Literature values as cited in PMC5263201, “GABAA receptor occupancy by subtype selective GABAAα2,3 modulators: PET studies in humans” (Psychopharmacology, 2016).
Where two headings read alike, the source gives them in different places.

Legend:
[1] = design: method as in AstraZeneca Single Ascending Dose studies; conditions: 6 subjects, ref AstraZeneca Single Ascending Dose studies, cited from earlier work
GABAA α5β3γ2 = molecular target: GABAA α5β3γ2; design: method as in Christian et al 2015; conditions: recombinant Sf9 membranes α5β3γ2; [3H]flunitrazepam; mean (SD); ref Christian et al 2015; read-out: Affinity in vitro at BZ binding site (Ki) α5; cited from earlier work

CCCNC(=O)c1nnc2c(-c3c(F)cccc3OC)cccc2c1N [AZD7325]
Number of subjects with at least one adverse event ([1]; AZD7325 0.2 mg): 2 (33) Number (%) of patients
anxiety ([1]; AZD7325 0.2 mg): 0 Number (%) of patients
dizziness ([1]; AZD7325 0.2 mg): 0 Number (%) of patients
euphoric mood ([1]; AZD7325 0.2 mg): 0 Number (%) of patients
hypoaesthesia ([1]; AZD7325 0.2 mg): 0 Number (%) of patients
paraesthesia ([1]; AZD7325 0.2 mg): 0 Number (%) of patients
somnolence ([1]; AZD7325 0.2 mg): 0 Number (%) of patients
Number of subjects with at least one adverse event ([1]; AZD7325 1mg): 2 (33) Number (%) of patients
anxiety ([1]; AZD7325 1mg): 0 Number (%) of patients
dizziness ([1]; AZD7325 1mg): 0 Number (%) of patients
euphoric mood ([1]; AZD7325 1mg): 0 Number (%) of patients
hypoaesthesia ([1]; AZD7325 1mg): 0 Number (%) of patients
paraesthesia ([1]; AZD7325 1mg): 0 Number (%) of patients
somnolence ([1]; AZD7325 1mg): 0 Number (%) of patients
Number of subjects with at least one adverse event ([1]; AZD7325 5mg): 4 (67) Number (%) of patients
anxiety ([1]; AZD7325 5mg): 0 Number (%) of patients
dizziness ([1]; AZD7325 5mg): 0 Number (%) of patients
euphoric mood ([1]; AZD7325 5mg): 0 Number (%) of patients
hypoaesthesia ([1]; AZD7325 5mg): 1 (17) Number (%) of patients
paraesthesia ([1]; AZD7325 5mg): 0 Number (%) of patients
somnolence ([1]; AZD7325 5mg): 1 (17) Number (%) of patients
Number of subjects with at least one adverse event ([1]; AZD7325 10 mg): 2 (33) Number (%) of patients
anxiety ([1]; AZD7325 10 mg): 0 Number (%) of patients
dizziness ([1]; AZD7325 10 mg): 2 (33) Number (%) of patients
euphoric mood ([1]; AZD7325 10 mg): 0 Number (%) of patients
hypoaesthesia ([1]; AZD7325 10 mg): 0 Number (%) of patients
paraesthesia ([1]; AZD7325 10 mg): 0 Number (%) of patients
somnolence ([1]; AZD7325 10 mg): 0 Number (%) of patients
Number of subjects with at least one adverse event ([1]; AZD7325 20 mg): 1 (17) Number (%) of patients
anxiety ([1]; AZD7325 20 mg): 0 Number (%) of patients
dizziness ([1]; AZD7325 20 mg): 0 Number (%) of patients
euphoric mood ([1]; AZD7325 20 mg): 1 (17) Number (%) of patients
hypoaesthesia ([1]; AZD7325 20 mg): 0 Number (%) of patients
paraesthesia ([1]; AZD7325 20 mg): 0 Number (%) of patients
somnolence ([1]; AZD7325 20 mg): 0 Number (%) of patients
Number of subjects with at least one adverse event ([1]; AZD7325 30 mg): 3 (50) Number (%) of patients
anxiety ([1]; AZD7325 30 mg): 0 Number (%) of patients
dizziness ([1]; AZD7325 30 mg): 1 (17) Number (%) of patients
euphoric mood ([1]; AZD7325 30 mg): 1 (17) Number (%) of patients
hypoaesthesia ([1]; AZD7325 30 mg): 0 Number (%) of patients
paraesthesia ([1]; AZD7325 30 mg): 0 Number (%) of patients
somnolence ([1]; AZD7325 30 mg): 1 (17) Number (%) of patients
Number of subjects with at least one adverse event ([1]; AZD7325 50 mg): 1 (50) Number (%) of patients
anxiety ([1]; AZD7325 50 mg): 0 Number (%) of patients
dizziness ([1]; AZD7325 50 mg): 0 Number (%) of patients
euphoric mood ([1]; AZD7325 50 mg): 0 Number (%) of patients
hypoaesthesia ([1]; AZD7325 50 mg): 0 Number (%) of patients
paraesthesia ([1]; AZD7325 50 mg): 0 Number (%) of patients
somnolence ([1]; AZD7325 50 mg): 0 Number (%) of patients
Number of subjects with at least one adverse event ([1]; AZD7325 75 mg): 4 (67) Number (%) of patients
anxiety ([1]; AZD7325 75 mg): 0 Number (%) of patients
dizziness ([1]; AZD7325 75 mg): 0 Number (%) of patients
euphoric mood ([1]; AZD7325 75 mg): 3 (50) Number (%) of patients
hypoaesthesia ([1]; AZD7325 75 mg): 0 Number (%) of patients
paraesthesia ([1]; AZD7325 75 mg): 1 (17) Number (%) of patients
somnolence ([1]; AZD7325 75 mg): 0 Number (%) of patients
Number of subjects with at least one adverse event ([1]; AZD7325 100 mg): 4 (67) Number (%) of patients
anxiety ([1]; AZD7325 100 mg): 1 (17) Number (%) of patients
dizziness ([1]; AZD7325 100 mg): 2 (33) Number (%) of patients
euphoric mood ([1]; AZD7325 100 mg): 1 (17) Number (%) of patients
hypoaesthesia ([1]; AZD7325 100 mg): 0 Number (%) of patients
paraesthesia ([1]; AZD7325 100 mg): 0 Number (%) of patients
somnolence ([1]; AZD7325 100 mg): 1 (17) Number (%) of patients

CCCNC(=O)c1nnc2c(-c3cc(OC)ccc3OC)cccc2c1N [AZD6280]
Ki (GABAA α5β3γ2): 1680 ± 650 nM
